Measurements published in patent US10208033B2, “β-carboline, dihydro-β-carboline and tetrahydro-β-carboline alkaloid derivatives and preparation methods same and use in aspects of preventing and treating plant viruses, fungicides and insecticides” (NANKAI UNIVERSITY, priority 2013, dated 2019).

Columns and labels:
[1] = test system: Colletotrichum orbiculare; assay: Fungicidal (bactericidal) activity in vitro, PDA colony diameter; format: cell-based; conditions: 50 mg/kg
[2] = test system: Bipolaria maydis; assay: organism not typed; format: cell-based; conditions: 50 mg/kg
[3] = test system: Macrophoma kawatsukai; assay: Fungicidal (bactericidal) activity in vitro, PDA colony diameter; format: cell-based; conditions: 50 mg/kg
[4] = test system: mosquito larvae; assay: whole plant or invertebrate; conditions: 24 h; for Mosquito larvae Mortality (%): concentration 10 mg/kg
Procedure, shortened: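 Compound dissolved in acetone (or other solvent) to a 1000 ppm stock and diluted in water to 5 ppm. Ten Culex pipiens pallens larvae at the start of the fourth instar, laboratory-reared, added per beaker; solvent-only aqueous control.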

[5] = test system: Alternaria solani; assay: Fungicidal (bactericidal) activity in vitro, PDA colony diameter; format: cell-based; conditions: 50 mg/kg
[6] = test system: Fusarium graminearumt; assay: microbe, parasite or virus in culture; format: cell-based; conditions: 50 mg/kg
[7] = test system: Rhizoctonia cereali; assay: Fungicidal (bactericidal) activity in vitro, PDA colony diameter; format: cell-based; conditions: 50 mg/kg
[8] = test system: cucumber fusarium wilt; assay: as above; format: cell-based; conditions: 50 mg/kg
[9] = test system: Phytophthora capsici; assay: as above; format: cell-based; conditions: 50 mg/kg
[10] = test system: cotton bollworms; assay: whole plant or invertebrate; conditions: for Cotton bollworm Mortality (%): concentration 600 mg/kg
Description: Experimental method of cotton bollworms: feed and drug mixing method: measure 3 mL of prepared solution and add it to about 27 g of newly prepared feed, thereby obtaining needed concentration through dilution by 10 times.

[11] = test system: tobacco mosaic virus (TMV); assay: Anti-TMV in vivo inactivation; parameters: species or system tobacco mosaic virus (host Nicotiana tabacum L.cv.Xanthi NN)
[12] = test system: potato late blight; assay: microbe, parasite or virus in culture; format: cell-based
[13] = test system: tobacco mosaic virus (TMV); assay: Anti-TMV in vivo therapeutic effect; parameters: species or system tobacco mosaic virus (host Nicotiana tabacum L.cv.Xanthi NN)
[14] = test system: tobacco mosaic virus (TMV); assay: Anti-TMV in vivo protective effect; parameters: species or system tobacco mosaic virus (host Nicotiana tabacum L.cv.Xanthi NN)
[15] = test system: Fusarium fujikuroi; assay: Fungicidal (bactericidal) activity in vitro, PDA colony diameter; format: cell-based; conditions: 50 mg/kg
[16] = test system: Cercospora arachidicola; assay: as above; format: cell-based; conditions: 50 mg/kg
[17] = test system: Botrytis cinerea; assay: as above; format: cell-based; conditions: 50 mg/kg
[18] = test system: Sclerotinia scleotiorum; assay: as above; format: cell-based; conditions: 50 mg/kg
[19] = test system: corn borers; conditions: concentration 600 mg/kg
[20] = test system: armyworms; format: in vivo; conditions: concentration 600 mg/kg
[21] = test system: tobacco mosaic virus (TMV); assay: Anti-TMV in vitro effect (half-leaf soaking); format: cell-based, tobacco mosaic virus (host Nicotiana tabacum L.cv.Xanthi NN)
[22] = test system: Rhizoctonia solani; assay: Fungicidal (bactericidal) activity in vitro, PDA colony diameter; format: cell-based; conditions: 50 mg/kg
[23] = test system: corn borers; assay: whole plant or invertebrate; conditions: read-out: Corn borer Mortality (%)

| SMILES | Bactericidal activity (%) Colletotrichum orbiculare [1] | Bactericidal activity (%) Bipolaria maydis [2] | Bactericidal activity (%) Macrophoma kawatsukai [3] | Mosquito larvae Mortality (%) [4] | Bactericidal activity (%) Alternaria solani [5] | Bactericidal activity (%) Fusarium graminearumt [6] | Bactericidal activity (%) Rhizoctonia cereali [7] | Bactericidal activity (%) Cucumber fusarium wilt [8] | Bactericidal activity (%) Phytophthora capsici [9] | Cotton bollworm Mortality (%) [10] | Relative inhibition rate (%) In vivo inactivation ([11]; treatment dose 100 μg/mL) | Relative inhibition rate (%) In vivo inactivation ([11]; treatment dose 500 μg/mL) | Bactericidal activity (%) potato late blight [12] | Relative inhibition rate (%) In vivo therapy ([13]; treatment dose 100 μg/mL) | Relative inhibition rate (%) In vivo therapy ([13]; treatment dose 500 μg/mL) | Relative inhibition rate (%) In vivo protection ([14]; treatment dose 100 μg/mL) | Relative inhibition rate (%) In vivo protection ([14]; treatment dose 500 μg/mL) | Bactericidal activity (%) Fusarium fujikuroi [15] | Bactericidal activity (%) Cercospora arachidicola [16] | Armyworm Mortality (%) [20] | further results |
| --- | --- | --- | --- | --- | --- | --- | --- | --- | --- | --- | --- | --- | --- | --- | --- | --- | --- | --- | --- | --- | --- |
| C[C@@H]1N[C@H](C(=O)NNC(=O)c2ccccc2)Cc2c1[nH]c1ccccc21 [Id-4, (1S, 3S)—N′-benzoyl-1-methyl-2,3,4,9-tetrahydropyridino [3,4-b] indol-3-formylhydrazine] | 32.0% | 28.0% | 45.5% | 25% | 33.3% | 38.5% | 35.1% | 13.6% | 18.2% | 30% | 0% | 37.5% | 17.4% | 0% | 34.2% | 12.1% | 40% | 29.4% | 27.3% | 10% | Bactericidal activity (%) Botrytis cinerea [17]: 55.6%; Bactericidal activity (%) Sclerotinia scleotiorum [18]: 7.7%; Corn borer Mortality (%) [19]: 15%; Relative inhibition rate (%) In vitro activity ([21]; treatment dose 100 μg/mL): 0%; Relative inhibition rate (%) In vitro activity ([21]; treatment dose 500 μg/mL): 36.9%; Bactericidal activity (%) Rhizoctonia solani [22]: 5.6% |
| CCCCCC(=O)NNC(=O)[C@@H]1Cc2c([nH]c3ccccc23)[C@H](C)N1 [Id-5, (1S, 3S)—N′—N-Hexanoyl-1-methyl-2,3,4,9-tetrahydropyridino [3,4-b] indol-3-formylhydrazine] | 28.0% | 32.0% | 63.6% | 10% | 23.8% | 46.2% | 29.7% | 22.7% | 21.2% | 30% | 0% | 31.5% | 26.1% | 0% | 27.3% | 0% | 30.9% | 29.4% | 45.5% | 5% | Bactericidal activity (%) Botrytis cinerea [17]: 66.7%; Bactericidal activity (%) Sclerotinia scleotiorum [18]: 26.9%; Corn borer Mortality (%) [19]: 25%; Relative inhibition rate (%) In vitro activity ([21]; treatment dose 100 μg/mL): 0%; Relative inhibition rate (%) In vitro activity ([21]; treatment dose 500 μg/mL): 32.1%; Bactericidal activity (%) Rhizoctonia solani [22]: 1.4% |
| COc1ccc2c3c([nH]c2c1)C(C)NCC3 (stereo not shown) [Tetrahydroharmine] |  |  |  |  |  |  |  |  |  |  |  |  |  |  |  |  |  |  |  | 0% | mortality at 10 mg/kg ([4]; Culex pipiens, read-out: Mosquito larvae Mortality (%)): 15%; mortality at 600 mg/kg [23]: 0%; mortality at 600 mg/kg ([10]; Helicoverpa armigera, in Gossypium hirsutum, read-out: Cotton bollworm Mortality (%)): 10%; inhibition at 100 µg/mL ([11]; Tobacco mosaic virus, treatment dose 100 μg/mL, read-out: Relative inhibition rate (%) In vivo inactivation): 26.4%; inhibition at 500 µg/mL ([11]; Tobacco mosaic virus, treatment dose 500 μg/mL, read-out: Relative inhibition rate (%) In vivo inactivation): 59.8%; inhibition at 100 µg/mL ([13]; Tobacco mosaic virus, treatment dose 100 μg/mL, read-out: Relative inhibition rate (%) In vivo therapy): 27.3%; inhibition at 500 µg/mL ([13]; Tobacco mosaic virus, treatment dose 500 μg/mL, read-out: Relative inhibition rate (%) In vivo therapy): 55.5%; inhibition at 100 µg/mL ([14]; Tobacco mosaic virus, treatment dose 100 μg/mL, read-out: Relative inhibition rate (%) In vivo protection): 24.2%; inhibition at 500 µg/mL ([14]; Tobacco mosaic virus, treatment dose 500 μg/mL, read-out: Relative inhibition rate (%) In vivo protection): 54.6%; inhibition at 100 µg/mL ([21]; Tobacco mosaic virus, treatment dose 100 μg/mL, read-out: Relative inhibition rate (%) In vitro activity): 28.7%; inhibition at 500 µg/mL ([21]; Tobacco mosaic virus, treatment dose 500 μg/mL, read-out: Relative inhibition rate (%) In vitro activity): 58.2% |
